In BigSolDB 2.1:

CC1Cc2ccccc2N1NC(=O)c1ccc(Cl)c(S(N)(=O)=O)c1 (stereo not given)
solubility (mole fraction)
Conditions	in 2-butanone	in acetone	in acetonitrile	in cyclohexane	in ethanol	in ethyl acetate	in isopropanol	in methanol	in n-propanol	in toluene
278.15 K	0.0155	0.0204	0.00184	1.28e-06	0.00383	0.000455	0.0012	0.00524	0.00285	4.36e-06
283.15 K	0.0175	0.0228	0.00278	2.34e-06	0.00514	0.000769	0.00187	0.00676	0.00398	6.4e-06
288.15 K	0.0198	0.0257	0.00391	3.75e-06	0.00709	0.00115	0.00279	0.00877	0.00531	1.08e-05
293.15 K	0.0225	0.0288	0.00536	5.88e-06	0.00913	0.00165	0.00386	0.0115	0.00685	1.68e-05
298.15 K	0.0255	0.0322	0.00714	9.3e-06	0.0116	0.00235	0.00535	0.0147	0.00884	2.54e-05
303.15 K	0.0291	0.036	0.00953	1.45e-05	0.0148	0.00336	0.00732	0.0187	0.0114	3.62e-05
308.15 K	0.0329	0.0402	0.0124	2.23e-05	0.0186	0.00464	0.00979	0.023	0.0143	5.21e-05
313.15 K	0.0371	0.0445	0.0158	3.36e-05	0.0227	0.00638	0.013	0.0276	0.0177	7.52e-05
318.15 K	0.0417	0.0495	0.0199	5.02e-05	0.0275	0.00855	0.0168	0.033	0.0219	0.000106
